Key:
succinate oxidase = test: Mitochondrial electron-transport activity determined as succinate oxidase activity in ubiquinone-depleted enzyme preparations; format: biochemical; conditions: level of addition 10 n moles; ubiquinone-depleted enzyme preparation; control 19.34 ± 1.42
Protocol: ^(1) Ubiquinonedepleted enzyme preparations were prepared in
accordance with Lester and Fleischer (Biochem. Biophys. Acta., 47,358-377
1961). The electrontransport activity was determined based on succinate

SRS-A production = test: Inhibition of SRS-A production and release in sensitized guinea-pig lung fragments (egg albumin antigen); format: cell-based, quinea-pig; conditions: lung fragments sensitized with egg albumin, compound dissolved in ethanol or dimethyl sulfoxide, read-out: Inhibitory effect on SRS-A production (%); for inhibition at 10 µM: concentration 10 μM
Protocol: Further, we investigated the effect of the present compound (I) on the production and release of the slow reacting substance of anaphylaxis (hereinafter, SRS-A) which has been mentioned as a main factor in asthma. Thus, in accordance with the method of Orange and Moore (J. Immunol., 116, 392-397, 1976), the present compound (I) was added to a quinea-pig lung fragments sensitized with egg albumin as the antigen, and the amount of SRS-A produced and released as a consequence was assayed by the method of Brocklehurst (J. Physiol., 151, 416-435, 1960).
^(1) The compound was added as dissolved in ethanol or dimethyl
^(2) The inhibitory effect on SRSA production was expressed as the %
inhibition of production and release of SRSA.

Succinate oxidase activity [oxygen consumption per mg enzyme protein during 1 minute (n atoms oxygen)] (succinate oxidase) [n atoms oxygen] | Compound | inhibition at 1 µM (SRS-A production; concentration 1 μM) [%] | inhibition at 10 µM (SRS-A production) [%]
96.05 | COC1=C(OC)C(=O)C(CCCCCCCCCCCCC(=O)O)=C(C)C1=O [R:H, n:12, 6-(12-carboxydodecyl)-2,3-dimethoxy-5-methyl-1,4-benzoquinone] | 60 ± 3.3 | 87.2 ± 5.5
112.05 | COC1=C(OC)C(=O)C(CCCCCCCCCCCCCCCCCC(=O)O)=C(C)C1=O [R:H, n:17, 6-(17-carboxyheptadecyl)-2,3-dimethoxy-5-methyl-1,4-benzoquinone] | – | 82.8 ± 4.4
– | COC1=C(OC)C(=O)C(CCCCCCCCCCCCCCCCCCCCCC(=O)O)=C(C)C1=O [R:H, n:21, 6-(21-carboxyheneicosyl)-2,3-dimethoxy-5-methyl-1,4-benzoquinone] | – | 80.5 ± 0.5
146.10 | COC(=O)CCCCCCCCCCCCC1=C(C)C(=O)C(OC)=C(OC)C1=O [n:12 R:CH3, 2,3-dimethoxy-6-(12-methoxycarbonyldodecyl)-5-methyl-1,4-benzoquinone] | – | –
